The source made the active and inactive calls.
Legend:
[1] = tested on: Streptococcus sp. 'group A'; test: growth inhibition of control SK(-) GAS strain, dose response, counter-screen for streptokinase expression inhibitor project, luminescence, kanamycin, BacTiterGlo, confirmation (AID 1900); assay type: functional, organism-based
[2] = biological target: T1, Replicative DNA helicase DnaB (Mycobacterium tuberculosis, UniProt P9WMR3); test: DnaB intein splicing inhibitors, dose response, biochemical, cell-free fluorescence (AID 449749); assay type: functional
T1 sequence (P9WMR3 whole entry): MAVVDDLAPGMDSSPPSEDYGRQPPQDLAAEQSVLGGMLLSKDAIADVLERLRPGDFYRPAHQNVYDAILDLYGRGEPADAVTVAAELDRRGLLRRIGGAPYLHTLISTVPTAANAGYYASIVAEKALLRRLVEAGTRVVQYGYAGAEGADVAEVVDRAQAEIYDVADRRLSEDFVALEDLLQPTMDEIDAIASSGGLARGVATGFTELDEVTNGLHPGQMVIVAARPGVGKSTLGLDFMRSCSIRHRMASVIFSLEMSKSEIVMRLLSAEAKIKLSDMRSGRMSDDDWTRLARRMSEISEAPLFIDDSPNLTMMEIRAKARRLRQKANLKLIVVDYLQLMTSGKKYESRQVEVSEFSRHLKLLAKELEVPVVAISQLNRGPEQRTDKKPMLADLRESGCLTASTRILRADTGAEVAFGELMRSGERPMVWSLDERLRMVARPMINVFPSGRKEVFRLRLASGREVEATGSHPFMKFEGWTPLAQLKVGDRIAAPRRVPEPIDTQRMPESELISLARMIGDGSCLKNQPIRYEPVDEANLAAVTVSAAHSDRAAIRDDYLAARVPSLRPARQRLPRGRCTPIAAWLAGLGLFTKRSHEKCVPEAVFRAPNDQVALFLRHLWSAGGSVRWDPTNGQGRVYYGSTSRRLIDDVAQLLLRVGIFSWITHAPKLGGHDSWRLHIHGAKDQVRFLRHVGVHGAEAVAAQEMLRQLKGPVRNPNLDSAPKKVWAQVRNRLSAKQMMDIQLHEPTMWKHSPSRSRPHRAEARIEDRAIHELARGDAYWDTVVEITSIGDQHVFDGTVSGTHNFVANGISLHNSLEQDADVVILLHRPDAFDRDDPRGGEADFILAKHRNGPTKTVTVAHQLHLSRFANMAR

[3] = biological target: T2, Apoptotic protease-activating factor 1 (Homo sapiens, UniProt O14727); assay type: functional
T2 sequence (O14727 whole entry): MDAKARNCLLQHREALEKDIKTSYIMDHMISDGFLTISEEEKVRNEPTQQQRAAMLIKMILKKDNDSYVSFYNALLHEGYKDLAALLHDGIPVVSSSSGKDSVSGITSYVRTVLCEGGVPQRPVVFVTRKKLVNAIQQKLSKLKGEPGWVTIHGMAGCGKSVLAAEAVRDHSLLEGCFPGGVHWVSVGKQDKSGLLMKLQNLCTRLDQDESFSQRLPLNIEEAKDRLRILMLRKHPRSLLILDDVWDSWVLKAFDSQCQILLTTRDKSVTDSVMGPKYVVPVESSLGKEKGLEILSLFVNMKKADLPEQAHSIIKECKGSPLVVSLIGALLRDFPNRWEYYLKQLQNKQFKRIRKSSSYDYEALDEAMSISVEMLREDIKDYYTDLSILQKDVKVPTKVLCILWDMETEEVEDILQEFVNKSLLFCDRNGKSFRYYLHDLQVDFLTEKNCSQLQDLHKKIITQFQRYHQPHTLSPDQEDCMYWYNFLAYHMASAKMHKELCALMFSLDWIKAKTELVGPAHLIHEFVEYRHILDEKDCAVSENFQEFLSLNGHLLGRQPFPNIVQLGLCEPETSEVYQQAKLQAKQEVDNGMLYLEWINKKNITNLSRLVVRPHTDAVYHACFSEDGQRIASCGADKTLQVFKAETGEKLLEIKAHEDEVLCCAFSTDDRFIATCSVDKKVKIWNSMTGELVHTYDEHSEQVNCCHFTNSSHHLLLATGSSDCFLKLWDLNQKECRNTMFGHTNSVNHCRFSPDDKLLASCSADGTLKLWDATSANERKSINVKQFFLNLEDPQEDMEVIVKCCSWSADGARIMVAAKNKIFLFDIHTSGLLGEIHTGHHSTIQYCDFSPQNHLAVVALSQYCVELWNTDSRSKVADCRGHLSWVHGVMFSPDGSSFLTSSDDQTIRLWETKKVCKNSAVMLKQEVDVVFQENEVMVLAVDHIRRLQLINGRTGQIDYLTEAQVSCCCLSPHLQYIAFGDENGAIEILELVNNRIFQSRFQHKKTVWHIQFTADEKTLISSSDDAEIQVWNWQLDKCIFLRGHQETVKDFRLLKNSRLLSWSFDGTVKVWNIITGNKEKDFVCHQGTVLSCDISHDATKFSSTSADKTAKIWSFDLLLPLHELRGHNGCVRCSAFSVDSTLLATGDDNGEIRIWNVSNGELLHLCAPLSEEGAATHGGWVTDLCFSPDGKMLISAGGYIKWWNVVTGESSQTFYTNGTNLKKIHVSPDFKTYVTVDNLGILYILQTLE

Protein RecA = biological target: T3, Protein RecA (Mycobacterium tuberculosis, UniProt P9WHJ3); test: Fluorescence Cell-Free Homogeneous Dose Retest to Identify Inhibitors of RecA-Intein Splicing Activity. [Related pubchem assays (depositor defined):AID2097, AID2223, AID489010, AID492950]; assay type: functional
T3 sequence (P9WHJ3 whole entry): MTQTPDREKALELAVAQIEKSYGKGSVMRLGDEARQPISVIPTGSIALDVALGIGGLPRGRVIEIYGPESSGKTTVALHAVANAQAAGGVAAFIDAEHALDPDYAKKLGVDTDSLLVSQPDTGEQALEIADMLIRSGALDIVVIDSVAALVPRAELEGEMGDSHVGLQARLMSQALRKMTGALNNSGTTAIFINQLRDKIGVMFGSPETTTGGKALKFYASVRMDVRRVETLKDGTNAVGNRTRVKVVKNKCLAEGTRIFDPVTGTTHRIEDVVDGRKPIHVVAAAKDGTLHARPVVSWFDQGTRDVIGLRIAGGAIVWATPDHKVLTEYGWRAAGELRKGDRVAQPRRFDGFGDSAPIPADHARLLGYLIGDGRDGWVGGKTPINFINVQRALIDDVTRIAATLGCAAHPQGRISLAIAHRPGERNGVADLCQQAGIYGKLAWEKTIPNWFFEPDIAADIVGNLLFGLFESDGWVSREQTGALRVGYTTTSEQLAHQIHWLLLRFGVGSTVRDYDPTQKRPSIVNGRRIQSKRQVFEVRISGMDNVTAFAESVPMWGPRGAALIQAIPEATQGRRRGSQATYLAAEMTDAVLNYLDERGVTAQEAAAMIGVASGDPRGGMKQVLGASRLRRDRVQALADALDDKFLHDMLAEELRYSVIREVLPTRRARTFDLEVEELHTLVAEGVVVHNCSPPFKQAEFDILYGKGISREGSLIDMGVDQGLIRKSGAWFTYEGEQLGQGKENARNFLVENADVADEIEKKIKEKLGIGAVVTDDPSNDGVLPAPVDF

CC(=O)N(C1=C(Cl)C(=O)c2ccccc2C1=O)C1CCCCC1
active: EC50 [1] 6920 nM | AC50 [2] 2980 nM | IC50 [3] 3120 nM | EC50 (Protein RecA) 1180 nM

Cc1ccc(NC2=C/C(=N\S(=O)(=O)c3cccs3)c3ccccc3C2=O)c(C)c1
active: EC50 [1] 2990 nM | AC50 [2] 339 nM | IC50 [3] 411 nM | EC50 (Protein RecA) 185 nM

COc1ccc(/C=N/NC(=O)c2nn(-c3ccccc3)c(=O)c3c(N)scc23)cc1
active: IC50 [3] 15300 nM | EC50 (Protein RecA) 220 nM

— ChEMBL document CHEMBL1201862, “PubChem BioAssay data set” (2004)
